Source: ChEMBL document CHEMBL1158639, “Synthesis and in vivo evaluation of [11C]MPTQ: a potential PET tracer for alpha2A-adrenergic receptors” (Bioorg Med Chem Lett, 2010)
pKi: −log10 of the molar value.

Tests used:
[1] = Metabolic stability in baboon brain assessed as compound remaining at 4.43 mCi after 30 mins; format: ADME, tissue-based; settings: papio anubis, read-out: Stability
[2] = Metabolic stability in baboon brain assessed as compound remaining at 4.43 mCi after 90 mins; format: ADME, tissue-based; settings: papio anubis, read-out: Stability
[3] = molecular target: Sodium-dependent serotonin transporter (Homo sapiens, UniProt P31645); assay: Displacement of [3H]paroxetine from 5HTT receptor
Sequence of Sodium-dependent serotonin transporter (P31645 whole entry): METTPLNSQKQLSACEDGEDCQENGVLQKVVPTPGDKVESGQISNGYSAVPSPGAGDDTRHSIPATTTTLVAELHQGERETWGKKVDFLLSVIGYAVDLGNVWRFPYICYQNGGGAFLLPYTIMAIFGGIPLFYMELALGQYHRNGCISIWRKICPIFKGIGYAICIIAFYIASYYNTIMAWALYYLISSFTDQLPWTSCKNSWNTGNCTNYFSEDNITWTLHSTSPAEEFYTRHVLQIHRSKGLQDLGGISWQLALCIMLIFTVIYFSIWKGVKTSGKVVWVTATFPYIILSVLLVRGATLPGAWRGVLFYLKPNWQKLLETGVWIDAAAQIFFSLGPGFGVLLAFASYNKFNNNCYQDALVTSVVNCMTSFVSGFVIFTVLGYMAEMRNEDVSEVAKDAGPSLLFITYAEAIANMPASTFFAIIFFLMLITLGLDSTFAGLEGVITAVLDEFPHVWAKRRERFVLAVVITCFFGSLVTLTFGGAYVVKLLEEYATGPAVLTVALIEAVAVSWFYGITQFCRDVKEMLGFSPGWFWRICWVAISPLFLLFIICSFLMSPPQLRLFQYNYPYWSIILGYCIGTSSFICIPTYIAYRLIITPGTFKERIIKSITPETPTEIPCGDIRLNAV

[4] = molecular target: T1, Alpha-2C adrenergic receptor (Homo sapiens, UniProt P18825); assay: Displacement of [3H]rauwolscine from adrenergic Alpha-2C receptor
T1 sequence (P18825 whole entry): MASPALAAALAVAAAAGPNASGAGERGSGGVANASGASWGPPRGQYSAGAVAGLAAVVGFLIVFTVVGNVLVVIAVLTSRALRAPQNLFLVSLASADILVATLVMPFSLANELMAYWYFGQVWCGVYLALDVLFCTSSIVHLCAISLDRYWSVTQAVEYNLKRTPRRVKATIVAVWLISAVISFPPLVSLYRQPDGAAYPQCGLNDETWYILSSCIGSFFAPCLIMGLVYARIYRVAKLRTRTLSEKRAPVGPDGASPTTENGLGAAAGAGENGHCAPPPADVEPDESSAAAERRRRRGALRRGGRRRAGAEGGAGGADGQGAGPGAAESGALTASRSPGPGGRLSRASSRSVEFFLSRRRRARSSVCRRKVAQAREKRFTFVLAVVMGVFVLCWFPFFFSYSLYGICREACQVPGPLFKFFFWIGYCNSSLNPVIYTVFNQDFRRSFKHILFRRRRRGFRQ

Row | remaining at 0.5 h [1] | remaining at 1.5 h [2] | pKi [3] | pKi [4] | SMILES
1 | 35% | 21% |  |  | [11CH3]N1CC2C(=NO[C@H]2CN2CCN(C/C=C/c3ccccc3)CC2)c2ccccc21 (some centres undefined)
2 |  |  | 7.80 | 8.35 | CN1CC2C(=NO[C@H]2CN2CCN(C/C=C/c3ccccc3)CC2)c2ccccc21 (some centres undefined)
